Each molecule was assayed on Dd2 strain of P. falciparum (assay: Activity against the Dd2 strain of P. falciparum (SYBR Green I, 72-h incubation)). Settings: Plasmodium falciparum, DD2, 72 h, read-out: EC^50 Dd2.
Assay type: cell-based
Method in brief: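 SYBR Green I signal (ex 485, em 530 nm) measured growth, read after 24 h dark staining in saponin/Triton lysis buffer. Before that, compound-exposed Dd2 cultures (1% parasitemia, 1.0% hematocrit, 0.125% DMSO) grew 72 h at 37° C in low-oxygen gas. Background control: 20 μM mefloquine.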
`COc1ccc2c3c([nH]c2c1)C(C)(C)N(C(C)=O)CC31CCN(C(=O)OC(C)(C)C)CC1` [Compound 14, tert-butyl 2′-acetyl-7′-methoxy-1′,1′-dimethyl-1′,2′,3′,9′-tetrahydrospiro [piperidine-4,4′-pyrido[3,4-b]indole]-1-carboxylate] showed an EC50 of 415 nM.
In the case of `COc1ccc2c3c(n(C)c2c1)[C@@H](CO)N(C(=O)C1CCC1)CC31CN(C(=O)Nc2cccc(F)c2)C1` [Compound 110, (S)-2′-(cyclobutanecarbonyl)-N-(3-fluorophenyl)-1′-(hydroxymethyl)-7′-methoxy-9′-methyl-1′,2′,3′,9′-tetrahydrospiro [azetidine-3,4′-pyrido[3,4-b]indole]-1-carboxamide], the EC50 is reported as 779 nM.
Molecule `COc1ccc2c3c([nH]c2c1)[C@H](CO)N(C(C)=O)CC31CCN(C(=O)N(C)c2ccccc2F)CC1` [Compound 63, (R)-2′-acetyl-N-(2-fluorophenyl)-1′-(hydroxymethyl)-7′-methoxy-N-methyl-1′,2′,3′,9′-tetrahydrospiro[piperidine-4,4′-pyrido[3,4-b]indole]-1-carboxamide] has an EC50 of 1700 to 2920 nM.
In the case of `COc1ccc2c3c([nH]c2c1)[C@H](CO)N(C(C)=O)CC31CCN(C(=O)Nc2ccc(F)c(F)c2)CC1` [Compound 58, (R)-2′-acetyl-N-(3,4-difluorophenyl)-1′-(hydroxymethyl)-7′-methoxy-1′,2′,3′,9′-tetrahydrospiro[piperidine-4,4′-pyrido[3,4-b]indole]-1-carboxamide], the EC50 is reported as 1440 to 1600 nM.
For `COCOC[C@H]1c2[nH]c3cc(OC)ccc3c2C2(CCN(C(=O)Nc3ccccc3F)CC2)CN1C(C)=O` [Compound 67, (R)-2′-acetyl-N-(2-fluorophenyl)-7′-methoxy-1′-((methoxymethoxy)methyl)-1′,2′,3′,9′-tetrahydrospiro [piperidine-4,4′-pyrido[3,4-b]indole]-1-carboxamide], the EC50 was 3040 nM.
In the case of `COc1ccc2c3c([nH]c2c1)[C@H](CO)N(C(C)=O)CC31CCN(c2nc3ccccc3s2)CC1` [Compound 137, (R)-1-(1-(benzo[d]thiazol-2-yl)-1′-(hydroxymethyl)-7′-methoxyspiro [piperidine-4,4′-pyrido[3,4-b]indol]-2′(1′H,3′H,9′H)-yl) ethanone], the EC50 is reported as 5760 nM.
`C=CCOC(=O)N1CC2(CCN(C(=O)OC(C)(C)C)CC2)c2c([nH]c3cc(OC)ccc23)[C@@H]1CO[Si](C)(C)C(C)(C)C` [Compound 18, (R)-2′-allyl 1-tert-butyl 1′-(((tert-butyldimethylsilyl)oxy)methyl)-7′-methoxy-3′,9′-dihydrospiro[piperidine-4,4′-pyrido[3,4-b]indole]-1,2′(1′H)-dicarboxylate] showed an EC50 of 763 nM.
For `COc1ccc2c3c([nH]c2c1)[C@H](CO)N(C(C)=O)CC31CCN(C(=O)Nc2ccccc2C(F)(F)F)CC1` [Compound 57, (R)-2′-acetyl-1′-(hydroxymethyl)-7′-methoxy-N-(2-(trifluoromethyl)phenyl)-1′,2′,3′,9′-tetrahydrospiro[piperidine-4,4′-pyrido[3,4-b]indole]-1-carboxamide], the EC50 was 577 to 1210 nM.
Work on `COc1ccc2c3c([nH]c2c1)[C@H](CO)N(S(=O)(=O)c1ccc(C)cc1)CC31CCN(C(=O)Nc2ccccc2F)CC1` [Compound 144, (R)-N-(2-fluorophenyl)-1′-(hydroxymethyl)-7′-methoxy-2′-tosyl-1′,2′,3′,9′-tetrahydrospiro [piperidine-4,4′-pyrido[3,4-b]indole]-1-carboxamide] yielded an EC50 of 1080 nM.
For `COc1ccc2c3c([nH]c2c1)[C@H](CN1CCOCC1)N(C(C)=O)CC31CCN(C(=O)OC(C)(C)C)CC1` [Compound 46, (S)-tert-butyl 2′-acetyl-7′-methoxy-1′-(morpholinomethyl)-1′,2′,3′,9′-tetrahydrospiro[piperidine-4,4′-pyrido[3,4-b]indole]-1-carboxylate], the EC50 was 2430 to 6330 nM.
For `CNC[C@H]1c2[nH]c3cc(OC)ccc3c2C2(CCN(C(=O)Nc3ccccc3F)CC2)CN1C(C)=O` [Compound 6, (S)-2′-acetyl-N-(2-fluorophenyl)-7′-methoxy-1′-((methylamino)methyl)-1′,2′,3′,9′-tetrahydrospiro[piperidine-4,4′-pyrido[3,4-b]indole]-1-carboxamide], the EC50 was 183 to 319 nM.
`COc1ccc2c3c([nH]c2c1)[C@@H](CO)N(Cc1cccc(F)c1)CC31CCN(Cc2ccccn2)CC1` [Compound 82, (S)-(2′-(3-fluorobenzyl)-7′-methoxy-1-(pyridin-2-ylmethyl)-1′,2′,3′,9′-tetrahydrospiro [piperidine-4,4′-pyrido[3,4-b]indol]-1′-yl)methanol] was tested, and the EC50 was 1520 nM.
`COc1ccc2c3c([nH]c2c1)[C@H](CO)N(C(C)=O)CC31CCN(C(=O)Cc2ccccc2F)CC1` [Compound 39] showed an EC50 of 752 nM.
In the case of `COc1ccc2c3c(n(C)c2c1)[C@@H](CO)N(C(=O)C1CCCC1)CC31CN(C(=O)Nc2cccc(F)c2)C1` [Compound 99, (S)-2′-(cyclopentanecarbonyl)-N-(3-fluorophenyl)-1′-(hydroxymethyl)-7′-methoxy-9′-methyl-1′,2′,3′,9′-tetrahydrospiro [azetidine-3,4′-pyrido[3,4-b]indole]-1-carboxamide], the EC50 is reported as 1880 nM.
`COc1ccc2c3c([nH]c2c1)[C@H](CO)N(C(C)=O)CC31CCN(C(=O)Nc2cccnc2)CC1` [Compound 52, (R)-2′-acetyl-1′-(hydroxymethyl)-7′-methoxy-N-(pyridin-3-yl)-1′,2′,3′,9′-tetrahydrospiro[piperidine-4,4′-pyrido[3,4-b]indole]-1-carboxamide] was tested, and the EC50 was 1450 to 1980 nM.
In the case of `COc1ccc2c3c([nH]c2c1)[C@H](CO)N(S(=O)(=O)C1CC1)CC31CCN(C(=O)Nc2ccccc2F)CC1` [Compound 145, (R)-2′-(cyclopropylsulfonyl)-N-(2-fluorophenyl)-1′-(hydroxymethyl)-7′-methoxy-1′,2′,3′,9′-tetrahydrospiro [piperidine-4,4′-pyrido[3,4-b]indole]-1-carboxamide], the EC50 is reported as 113 nM.
`COc1ccc2c3c([nH]c2c1)[C@H](CO[Si](C)(C)C(C)(C)C)N(C(C)=O)CC31CCN(Cc2ccccc2F)CC1` [Compound 38, (R)-1-(1′-(((tert-butyldimethylsilyl)oxy)methyl)-1-(2-fluorobenzyl)-7′-methoxyspiro[piperidine-4,4′-pyrido[3,4-b]indol]-2′(1′H,3′H,9′H)-yl)ethanone] was tested, and the EC50 was 809 nM.
`COc1ccc2c3c([nH]c2c1)[C@H](CO)N(C(=O)C(C)C)CC31CCN(C(=O)Nc2ccccc2F)CC1` [Compound 9] showed an EC50 of 2910 nM.
`CCC(=O)N1CCC2(CC1)CN(Cc1cccc(OC)c1)[C@@H](CO)c1[nH]c3cc(OC)ccc3c12` [Compound 107, (R)-1-(1′-(hydroxymethyl)-7′-methoxy-2′-(3-methoxybenzyl)-1′,2′,3′,9′-tetrahydrospiro [piperidine-4,4′-pyrido[3,4-b]indol]-1-yl)propan-1-one] was tested, and the EC50 was 2210 nM.
`COc1ccc2c3c([nH]c2c1)[C@H](CO)N(CCCc1ccccc1)CC31CCN(C(=O)Nc2ccccc2F)CC1` [Compound 71, (R)-N-(2-fluorophenyl)-1′-(hydroxymethyl)-7′-methoxy-2′-(3-phenylpropy1)-1′,2′,3′,9′-tetrahydrospiro[piperidine-4,4′-pyrido[3,4-b]indole]-1-carboxamide] was tested, and the EC50 was 7240 nM.
Molecule `COc1ccc2c3c(n(C)c2c1)[C@@H](CO)NCC31CCN(Cc2ccc(-c3ccccn3)cc2)CC1` [Compound 130, (S)-(7′-methoxy-9′-methyl-1-(4-(pyridin-2-yl)benzyl)-1′,2′,3′,9′-tetrahydrospiro[piperidine-4,4′-pyrido[3,4-b]indol]-1′-yl)methanol] has an EC50 of 439 nM.
`COc1ccc2c3c(n(C)c2c1)[C@@H](CO)N(C(=O)C1CC1)CC31CCN(C(=O)Nc2cccc(F)c2)CC1` [Compound 125, (S)-2′-(cyclopropanecarbonyl)-N-(3-fluorophenyl)-1′-(hydroxymethyl)-7′-methoxy-9′-methyl-1′,2′,3′,9′-tetrahydrospiro [piperidine-4,4′-pyrido[3,4-b]indole]-1-carboxamide] showed an EC50 of 343 nM.
With `COc1ccc2c3c([nH]c2c1)[C@H](CO)N(C(=O)Nc1ccc(F)cc1)CC31CCN(S(=O)(=O)c2cccc(F)c2)CC1` [Compound 128, (R)-N-(4-fluorophenyl)-1-((3-fluorophenyl)sulfonyl)-1′-(hydroxymethyl)-7′-methoxy-3′,9′-dihydrospiro [piperidine-4,4′-pyrido[3,4-b]indole]-2′(1′H)-carboxamide] the EC50 was 750 nM.
`COc1ccc2c3c([nH]c2c1)[C@H](CO)N(C(C)=O)CC31CCN(C(=O)Nc2cccc(F)c2F)CC1` [Compound 45, (R)-2′-acetyl-N-(2,3-difluorophenyl)-1′-(hydroxymethyl)-7′-methoxy-1′,2′,3′,9′-tetrahydrospiro[piperidine-4,4′-pyrido[3,4-b]indole]-1-carboxamide] was tested, and the EC50 was 44 to 131 nM.
For `COc1ccc2c3c([nH]c2c1)[C@H](CO)N(S(C)(=O)=O)CC31CCN(C(=O)Nc2ccccc2F)CC1` [Compound 53, (R)-N-(2-fluorophenyl)-1′-(hydroxymethyl)-7′-methoxy-2′-(methylsulfonyl)-1′,2′,3′,9′-tetrahydrospiro[piperidine-4,4′-pyrido[3,4-b]indole]-1-carboxamide], the EC50 was 37 to 118 nM.

Same assay, conditions: read-out: EC^50 Dd2
`COc1ccc2c3c([nH]c2c1)[C@H](CO[Si](C)(C)C(C)(C)C)N(C(C)=O)CC31CCN(C(=O)OC(C)(C)C)CC1` [Compound 29, (R)-tert-butyl 2′-acetyl-1′-(((tert-butyldimethylsilyl)oxy)methyl)-7′-methoxy-1′,2′,3′,9′-tetrahydrospiro[piperidine-4,4′-pyrido[3,4-b]indole]-1-carboxylate] was tested, and the EC50 was 1390 nM.
Work on “Mixture of (1R,3′R) and (1R,3′S)-tert-butyl 2-acetyl-1-(((tert- butyldimethylsilyl)oxy) methyl)-7-methoxy- 1,2,3,9- tetrahydrospiro [pyrido[3,4-b]indole- 4,3′-pyrrolidine]-1′- carboxylate compound with (1R,3′S)-tert-butyl 2-acetyl-1- (((tert-butyldimethylsilyl) oxy)methyl)-7- methyoxy-1,2,3,9- tetrahydrospiro[pyrido [3,4-b]indole-4,3′- pyrrolidine]-1′- carboxylate (1:1) [Compound 76]” yielded an EC50 of 1470 nM.
